Laboratory results: patent publication US20170240556A1, “BIFLUORODIOXALANE-AMINO-BENZIMIDAZOLE KINASE INHIBITORS FOR THE TREATMENT OF CANCER, AUTOIMMUNEINFLAMMATION AND CNS DISORDERS” (4SC DISCOVERY GMBH, priority 2012, published 2017)

What was measured:
Assay in all cases: Proliferation Assay
Assay type in all cases: cell-based
SF268 (brain) = details: Homo sapiens, SF-268, 72 h, read-out: IC50 inhibition of cell growth
Procedure: (§1) For the determination of the inhibitory capacity of compounds of the present invention (in the following: “test compound(s)”) on cell growth, cancer cells were seeded into microtitre plates, treated with different concentrations of test compound or left untreated, and after 72 h the protein content was determined as an equivalent for the cell number.
(§2) Test compounds were dissolved in 100% DMSO and predilutions in cell culture medium were prepared with a final concentration of 0.1% DMSO in medium. The cell culture medium for dilution of the test compounds, consecutive culturing of cell lines and usage during the assay was a cell line specific medium as recommended by the cell line supplier and identical for all three applications mentioned above. After a 24-hour pre-growth period of the seeded cancer cells, the test compound containing media or medium containing 0.1% DMSO as control was added to the cells. The cells were allowed to grow at 37° C. for 72 hours. In addition, all experiments contained a few plates with cells that were processed for measurement immediately after the 24 hours recovery period. These plates contained information about the cell number that existed before treatment, at time zero, and served to calculate the cytotoxicity and/or growth inhibitory effects.
(§3) After treatment, cells were precipitated by addition of 10% TCA (trichloracetic acid). Prior to fixation, the media was aspirated. After an hour of incubation at 4° C. the plates were washed twice with 400 μl of deionized water. Cells were then stained with 100 μl of a 0.08% wt/v SRB (sulforhodamine). The plates were allowed to sit for at least 30 min and washed six times with 1% acetic acid to remove unbound staining agent. The plates were left to dry at room temperature and bound SRB was solubilized with 100 μl of 10 mM Tris base. Measurement of optical density was performed at 560 nm on a Victor 2 plate reader (Perkin Elmer, Germany).
(§4) One common way to express the effect of an anticancer agent is to measure cell viability and survival in the presence of the test agent as % Treated/Control×100. The relationship between the viability and dose is called a dose response curve. Those dose response curves were determined by using algorithms developed by Oncolead GmbH & Co. KG, Munich, Germany, that can be compared to commercial applications, e.g. XLfit™ (ID Business Solutions Ltd., Guildford, UK) algorithm “205”.

CAKI1 (kidney) = details: Homo sapiens, CAKI-1, 72 h, read-out: IC50 inhibition of cell growth
Procedure: as §1, §2, §3, §4

HS578T (breast) = details: Homo sapiens, Hs-578T, 72 h, read-out: IC50 inhibition of cell growth
Procedure: as §1, §2, §3, §4

PLCPRFS (liver) = details: 72 h, read-out: IC50 inhibition of cell growth
Procedure: as §1, §2, §3, §4

MDAMB468 (breast) = details: Homo sapiens, MDA-MB-468, 72 h, read-out: IC50 inhibition of cell growth
Procedure: as §1, §2, §3, §4

OVCAR4 (ovary) = details: Homo sapiens, OVCAR-4, 72 h, read-out: IC50 inhibition of cell growth
Procedure: as §1, §2, §3, §4

SKHEP1 (liver) = details: Homo sapiens, SK-HEP1, 72 h, read-out: IC50 inhibition of cell growth
Procedure: as §1, §2, §3, §4

C33A (cervix) = details: Homo sapiens, C-33-A, 72 h, read-out: IC50 inhibition of cell growth
Procedure: as §1, §2, §3, §4

MIAPACA2 (pancreas) = details: Homo sapiens, MIA PaCa-2, 72 h, read-out: IC50 inhibition of cell growth
Procedure: as §1, §2, §3, §4

CASKI (cervix) = details: Homo sapiens, Ca-Ski, 72 h, read-out: IC50 inhibition of cell growth
Procedure: as §1, §2, §3, §4

OVCAR3 (ovary) = details: Homo sapiens, OVCAR-3, 72 h, read-out: IC50 inhibition of cell growth
Procedure: as §1, §2, §3, §4

U87MG (brain) = details: Homo sapiens, U-87 MG, 72 h, read-out: IC50 inhibition of cell growth
Procedure: as §1, §2, §3, §4

NCIH460 (lung) = details: Homo sapiens, NCI-H460, 72 h, read-out: IC50 inhibition of cell growth
Procedure: as §1, §2, §3, §4

JEG3 (placenta) = details: Homo sapiens, JEG-3, 72 h, read-out: IC50 inhibition of cell growth
Procedure: as §1, §2, §3, §4

SKBR3 (breast) = details: Homo sapiens, SK-BR-3, 72 h, read-out: IC50 inhibition of cell growth
Procedure: as §1, §2, §3, §4

U2OS (bone) = details: Homo sapiens, 72 h, read-out: IC50 inhibition of cell growth
Procedure: as §1, §2, §3, §4

BT20 (breast) = details: Homo sapiens, BT-20, 72 h, read-out: IC50 inhibition of cell growth
Procedure: as §1, §2, §3, §4

HS729 (muscle) = details: 72 h, read-out: IC50 inhibition of cell growth
Procedure: as §1, §2, §3, §4

IGROV1 (ovary) = details: Homo sapiens, IGROV-1, 72 h, read-out: IC50 inhibition of cell growth
Procedure: as §1, §2, §3, §4

A431 (skin) = details: Homo sapiens, A-431, 72 h, read-out: IC50 inhibition of cell growth
Procedure: as §1, §2, §3, §4

SKLMS1 (uterus) = details: Homo sapiens, SK-LMS-1, 72 h, read-out: IC50 inhibition of cell growth
Procedure: as §1, §2, §3, §4

SKNSH (brain) = details: Homo sapiens, SK-N-SH, 72 h, read-out: IC50 inhibition of cell growth
Procedure: as §1, §2, §3, §4

SKOV3 (ovary) = details: Homo sapiens, SK-OV-3, 72 h, read-out: IC50 inhibition of cell growth
Procedure: as §1, §2, §3, §4

PANC1 (pancreas) = details: Homo sapiens, PANC-1, 72 h, read-out: IC50 inhibition of cell growth
Procedure: as §1, §2, §3, §4

Measured: IC50

COc1cccc(C(=O)Nc2nc3cc4c(cc3[nH]2)OC(F)(F)O4)c1 [Compound 56, N-(2,2-difluoro-5H-[1,3]dioxolo[4′,5′:4,5]benzo[1,2-d]imidazol-6-yl)-3-methoxybenzamide]
≤ 1 µM: all assays above
